# Reference: ChEMBL document CHEMBL5500415, “Design of a Lead-Like Cysteine-Targeting Covalent Library and the Identification of Hits to Cys55 of Bfl-1” (J Med Chem, 2024)
# Legend:
# [1] = GSH reactivity assessed as half life at pH 7.4 incubated for 24 hrs by LC-UV-MS analysis; type: physicochemical; details: glutathione (GSH) solution
# [2] = Lipophilicity, logD of compound at pH 7.4 by shake-flask method; type: physicochemical; details: buffer
# [3] = biological target: T1, Bcl-2-related protein A1 (Homo sapiens) (UniProt Q16548); assay: Binding affinity to N-terminal His6-tagged recombinant human Bfl-1 (1 to 151 residues) expressed in Escherichia coli BL21-Gold (DE3) cells assessed as Kinact/ki incubated for 10 to 90 mins by MS analysis; details: time 10-90 min
# T1 sequence (whole entry): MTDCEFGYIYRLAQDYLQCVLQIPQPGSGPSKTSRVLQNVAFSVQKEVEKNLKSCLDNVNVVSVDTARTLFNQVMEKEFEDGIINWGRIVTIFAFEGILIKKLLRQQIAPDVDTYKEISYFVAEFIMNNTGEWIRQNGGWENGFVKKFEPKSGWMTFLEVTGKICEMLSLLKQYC
# [4] = biological target: T2, Bcl-2-related protein A1 (Homo sapiens, UniProt Q16548); assay: Inhibition of human recombinant N-terminal his tagged Bfl-1 (1 to 151 residues) expressed in Escherichia coli BL21-Gold (DE3) cells using HyLite Fluor 647-labeled BIM peptide as substrate incubated for 120 mins by TR-FRET assay
# T2 sequence (Q16548 whole entry): T1 sequence (whole entry)
half-life [1] [h],logD [2],K [3] [M⁻¹ s⁻¹],IC50 [4] [µM],SMILES
13.7,1.7,0.7,480,C=CC(=O)N1CCC[C@@H]1c1ccccc1
,,6.8,18,C=CC(=O)Nc1cc(CN2CCCC2)ccc1-c1ccc(OC)cc1C
,,9.5,10.4,C=CC(=O)N1C[C@@H](Oc2cc(Cl)c(F)cc2C#N)[C@H]1CCC (racemic)
,,7.5,23.4,C=CC(=O)N(Cc1ccc(OC)cc1)c1cccc(Cl)c1
,,5.5,16.8,C=CC(=O)N(Cc1ccccc1OCC(N)=O)c1ccc(Cl)cc1
,,0.8,90.9,C=CC(=O)N(C)[C@@H](c1ccc(Cl)cc1)C1CCOCC1 (racemic)
